The target of one assay is FAK recombinant protein (Homo sapiens (Human), UniProt Q05397). The assay is described as follows: Inhibitory activity against FAK enzyme (HTRF, TK substrate). The format is biochemical. As for the experimental part:
A compound serially diluted with DMSO was mixed with a FAK recombinant protein. After the mixture was left to stand at room temperature for 10 min, a biotin-labeled TK substrate (TK) and ATP were added. […] The inhibition percentage and IC50 of the compound were calculated compared to the DMSO control group.
(In general: TR-FRET usually uses a lanthanide donor and a delayed reading to cut background.)

The subject of assay [1] is PC3 cells. The assay is described as follows: PC3 cell proliferation, 2D activity assay (Cell Titer-Lumi, 72 h). The format is cell-based, human. The settings on record: Homo sapiens, PC-3, read-out: 2D inhibitory activity against PC3 cells IC50.
In assay [2] the test system is PC3 cells. Description: PC3 cell proliferation, 3D activity assay (3D culture, 14 days). It is filed as cell-based, human. The settings on record: Homo sapiens, PC-3, 336 h, read-out: 3D inhibitory activity against PC3 cells IC50.

The structures appear in SMILES notation.

A word on the IC50: it is the point on the concentration scale where inhibition reaches its midpoint.

Chain of FAK recombinant protein (Q05397 whole entry): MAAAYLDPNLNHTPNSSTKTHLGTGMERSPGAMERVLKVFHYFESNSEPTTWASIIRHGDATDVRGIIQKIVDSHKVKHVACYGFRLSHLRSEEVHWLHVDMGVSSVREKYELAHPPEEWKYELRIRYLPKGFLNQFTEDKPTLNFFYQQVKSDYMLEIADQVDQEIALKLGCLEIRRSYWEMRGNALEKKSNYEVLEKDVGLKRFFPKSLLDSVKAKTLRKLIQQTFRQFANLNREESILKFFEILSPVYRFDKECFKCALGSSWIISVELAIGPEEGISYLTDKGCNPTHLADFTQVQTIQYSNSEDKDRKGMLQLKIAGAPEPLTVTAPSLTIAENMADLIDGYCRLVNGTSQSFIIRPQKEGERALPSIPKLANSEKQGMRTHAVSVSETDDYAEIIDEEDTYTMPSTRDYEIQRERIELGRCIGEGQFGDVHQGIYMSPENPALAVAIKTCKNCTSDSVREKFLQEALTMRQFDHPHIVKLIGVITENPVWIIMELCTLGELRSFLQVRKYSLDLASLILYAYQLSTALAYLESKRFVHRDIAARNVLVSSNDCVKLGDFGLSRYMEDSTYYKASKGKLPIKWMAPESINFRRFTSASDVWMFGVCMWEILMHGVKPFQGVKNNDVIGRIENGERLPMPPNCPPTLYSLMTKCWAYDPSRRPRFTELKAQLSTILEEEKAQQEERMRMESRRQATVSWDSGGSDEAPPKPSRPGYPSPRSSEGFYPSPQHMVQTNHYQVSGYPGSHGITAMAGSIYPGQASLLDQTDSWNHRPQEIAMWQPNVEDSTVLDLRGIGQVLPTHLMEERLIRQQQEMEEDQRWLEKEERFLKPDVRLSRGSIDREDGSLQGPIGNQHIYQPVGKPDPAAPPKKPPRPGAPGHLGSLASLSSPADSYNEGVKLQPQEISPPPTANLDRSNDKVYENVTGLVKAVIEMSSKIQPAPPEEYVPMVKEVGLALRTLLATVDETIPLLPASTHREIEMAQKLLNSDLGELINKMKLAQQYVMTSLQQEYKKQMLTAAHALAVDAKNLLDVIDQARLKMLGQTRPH

As to `COc1cc(N2CCC3(CCN(C)CC3)CC2)ccc1Nc1ncc(Cl)c(Oc2cccc3c2C(=O)N(C)C32CC2)n1` [Compound 147], the figures for the IC50 at FAK recombinant protein, in the assay on PC3 cells [1] and in the assay on PC3 cells [2] were under 20 nM, over 2000 nM and under 5 nM, respectively.
The matching figures for `COc1cc(N2CCC3(CC2)CN(C)C3)c(F)cc1Nc1ncc(Cl)c(Oc2cccc3c2C(=O)N(C)C32CC2)n1` [Compound 148]: under 20 nM, over 2000 nM and under 5 nM.
In the same order, the values of `COc1cc(N2CCC3(CC2)CN(C)C3)ccc1Nc1ncc(Cl)c(Oc2cccc3c2C(=O)N(C)C32CC2)n1` [Compound 149] are under 20 nM, over 2000 nM and under 5 nM.
In the case of `COc1cc(N2CCC3(CCN(C)C3)C2)c(F)cc1Nc1ncc(Cl)c(Oc2cccc3c2C(=O)N(C)C32CC2)n1` (stereo not drawn) [Compound 150], the IC50 was under 20 nM on FAK recombinant protein, over 2000 nM in the assay with PC3 cells [1] and under 5 nM in the assay with PC3 cells [2].
In the case of `COc1cc(N2CCC3(CCN(C)C3)C2)ccc1Nc1ncc(Cl)c(Oc2cccc3c2C(=O)N(C)C32CC2)n1` (stereo not drawn) [Compound 151], the IC50 is under 20 nM at FAK recombinant protein, over 2000 nM in the assay with PC3 cells [1] and under 5 nM with PC3 cells [2].
As for `COc1cc(N2CCC(N(C)C)CC2)c(F)cc1Nc1ncc(Cl)c(Oc2cccc3c2C(=O)N(C)C32CC2)n1` [Compound 152], the IC50 at FAK recombinant protein is under 20 nM; in the assay on PC3 cells [1], over 2000 nM; in the assay with PC3 cells [2], 5 to 50 nM.
The matching figures for `COc1cc(CN2CCN(C)CC2)ccc1Nc1ncc(Cl)c(Oc2cccc3c2C(=O)N(C)C32CC2)n1` [Compound 153, 4′-((5-chloro-2-((2-methoxy-4-((4-methylpiperazin-1-yl)methyl)phenyl)amino)pyrimidin-4-yl)oxy)-2′-methylspiro[cyclopropane-1,1′-isoindolin]-3′-one]: under 20 nM, over 2000 nM and under 5 nM.
The matching figures for `COc1cc(CNC2CCN(C)CC2)ccc1Nc1ncc(Cl)c(Oc2cccc3c2C(=O)N(C)C32CC2)n1` [Compound 155]: under 20 nM, over 2000 nM and 5 to 50 nM.
On to `COc1cc(CN(C)C2CCN(C)CC2)c(F)cc1Nc1ncc(Cl)c(Oc2cccc3c2C(=O)N(C)C32CC2)n1` [Compound 156], for which the IC50 was under 20 nM at FAK recombinant protein, over 2000 nM in the assay with PC3 cells [1] and 5 to 50 nM with PC3 cells [2].
Regarding `COc1cc(N2CC(N3CCN(C)CC3)C2)ccc1Nc1ncc(Cl)c(Oc2cccc3c2C(=O)N(C)C32CC2)n1` [Compound 157, 4′-((5-chloro-2-((2-methoxy-4-(3-(4-methylpiperazin-1-yl)azetidin-1-yl)phenyl)amino)pyrimidin-4-yl)oxy)-2′-methylspiro[cyclopropane-1,1′-isoindolin]-3′-one], the IC50 on FAK recombinant protein is under 20 nM; with PC3 cells [1] it was over 2000 nM; in the assay with PC3 cells [2] it was under 5 nM.
Take `COc1cc(N2CC(N3CC(N(C)C)C3)C2)ccc1Nc1ncc(Cl)c(Oc2cccc3c2C(=O)N(C)C32CC2)n1` [Compound 158]: the 50% inhibitory concentration (IC50) on FAK recombinant protein is under 20 nM; in the assay on PC3 cells [1], over 2000 nM; in the assay with PC3 cells [2], 5 to 50 nM.
Regarding `COc1cc(N2CC(N(C)C)C2)ccc1Nc1ncc(Cl)c(Oc2cccc3c2C(=O)N(C)C32CC2)n1` [Compound 159], the IC50 is under 20 nM on FAK recombinant protein, over 2000 nM in the assay on PC3 cells [1] and 5 to 50 nM with PC3 cells [2].
Turning to `COc1cc(N2CC(N3C4CCC3CN(C)C4)C2)ccc1Nc1ncc(Cl)c(Oc2cccc3c2C(=O)N(C)C32CC2)n1` [Compound 161], the IC50 at FAK recombinant protein is under 20 nM; in the assay with PC3 cells [1], over 2000 nM; in the assay with PC3 cells [2] it was under 5 nM.
In the case of `COc1cc(N2CCC(N3CC4CC(C3)N4C)CC2)ccc1Nc1ncc(Cl)c(Oc2cccc3c2C(=O)N(C)C32CC2)n1` [Compound 163], the IC50 on FAK recombinant protein is under 20 nM; in the assay on PC3 cells [1] it was over 2000 nM; in the assay on PC3 cells [2], 5 to 50 nM.
In the case of `COc1cc(N2C3CC2CN(C)C3)ccc1Nc1ncc(Cl)c(Oc2cccc3c2C(=O)N(C)C32CC2)n1` [Compound 164], the results for the IC50 at FAK recombinant protein, in the assay on PC3 cells [1] and in the assay on PC3 cells [2] were under 20 nM, over 2000 nM and 5 to 50 nM, respectively.
In the same order, the values of `COc1cc(N2CC3CC(C2)N3C)ccc1Nc1ncc(Cl)c(Oc2cccc3c2C(=O)N(C)C32CC2)n1` [Compound 165] are under 20 nM, over 2000 nM and 5 to 50 nM.
As for `COc1cc(N2C3CCC2CN(C)C3)ccc1Nc1ncc(Cl)c(Oc2cccc3c2C(=O)N(C)C32CC2)n1` [Compound 166], the results for the IC50 on FAK recombinant protein, in the assay with PC3 cells [1] and with PC3 cells [2] were under 20 nM, over 2000 nM and 5 to 50 nM, respectively.
Consider `COc1cc(N2CCC3C(CCN3C)C2)ccc1Nc1ncc(Cl)c(Oc2cccc3c2C(=O)N(C)C32CC2)n1` (stereo not drawn) [Compound 167], for which the IC50 on FAK recombinant protein is under 20 nM; in the assay with PC3 cells [1], over 2000 nM; in the assay on PC3 cells [2], 5 to 50 nM.
On to `COc1cc(N2CCC3CN(C)CCC32)ccc1Nc1ncc(Cl)c(Oc2cccc3c2C(=O)N(C)C32CC2)n1` (stereo not drawn) [Compound 168], for which the figures for the IC50 at FAK recombinant protein, with PC3 cells [1] and with PC3 cells [2] were under 20 nM, over 2000 nM and under 5 nM, respectively.
In the same order, the values of `COc1cc(N2CC3CN(C)CC3C2)ccc1Nc1ncc(Cl)c(Oc2cccc3c2C(=O)N(C)C32CC2)n1` (stereo not drawn) [Compound 169] are under 20 nM, over 2000 nM and under 5 nM.
The matching figures for `COc1cc(N2CC3CCN(C)C3C2)ccc1Nc1ncc(Cl)c(Oc2cccc3c2C(=O)N(C)C32CC2)n1` (stereo not drawn) [Compound 170]: under 20 nM, over 2000 nM and 5 to 50 nM.
As for `COc1cc(N2CCC3CN(C)CC32)ccc1Nc1ncc(Cl)c(Oc2cccc3c2C(=O)N(C)C32CC2)n1` (stereo not drawn) [Compound 172], the IC50 on FAK recombinant protein was under 20 nM; with PC3 cells [1] it was over 2000 nM; in the assay with PC3 cells [2], 5 to 50 nM.
Turning to `COc1cc(N2CCC3CN(C)CC3C2)ccc1Nc1ncc(Cl)c(Oc2cccc3c2C(=O)N(C)C32CC2)n1` (stereo not drawn) [Compound 173], the results for the IC50 on FAK recombinant protein, in the assay on PC3 cells [1] and in the assay on PC3 cells [2] were under 20 nM, over 2000 nM and under 5 nM, respectively.
The matching figures for `COc1cc(C(=O)NC2CCN(C)CC2)c(F)cc1Nc1ncc(Br)c(Oc2cccc3c2C(=O)N(C)C32CC2)n1` [Compound 174, 4-((5-bromo-4-((2′-methyl-3′-oxospiro[cyclopropane-1,1′-isoindolin]-4′-yl)oxy)pyrimidin-2-yl)amino)-2-fluoro-5-methoxy-N-(1-methylpiperidin-4-yl)benzamide]: under 20 nM, over 2000 nM and under 5 nM.
As to `COc1cc(C(=O)NC2CC3(CCN(C)CC3)C2)c(F)cc1Nc1ncc(Br)c(Oc2cccc3c2C(=O)N(C)C32CC2)n1` [Compound 175], the IC50 is under 20 nM at FAK recombinant protein, over 2000 nM in the assay on PC3 cells [1] and under 5 nM with PC3 cells [2].
The matching figures for `COc1cc(C(=O)NC2CC3(CCN(C)CC3)C2)ccc1Nc1ncc(Br)c(Oc2cccc3c2C(=O)N(C)C32CC2)n1` [Compound 176]: under 20 nM, over 2000 nM and under 5 nM.
In the case of `COc1cc(C2CCN(C)CC2)ccc1Nc1ncc(Br)c(Oc2cccc3c2C(=O)N(C)C32CC2)n1` [Compound 179], the IC50 at FAK recombinant protein is under 20 nM; with PC3 cells [1] it was over 2000 nM; with PC3 cells [2], 5 to 50 nM.

Source of the values: patent US20250154134A1, “COMPOUND AS FAK INHIBITOR AND USE THEREOF” (WIGEN BIOMEDICINE TECHNOLOGY (SHANGHAI) CO., LTD., priority 2022, published 2025).
